Source: patent publication US20200071351A1, “TACCALONOLIDE MICROTUBULE STABILIZERS” (THE BOARD OF REGENTS OF THE UNIVERSITY OF TEXAS SYSTEM, priority 2016, published 2020)
Read-outs that look alike come from different tables or passages of the source.

System: HeLa cells
Test: Inhibition of cellular proliferation, SRB assay, HeLa cells
Type: cell-based
Conditions: HeLa cells; for IC50: SRB assay; for activity at concentrations as high as 30,000 nM: up to 30,000 nM
Procedure: The ability of the compounds to initiate cytotoxicity was also determined. […] The determination of IC50 values was performed on taccalonolide material after NMR analysis and subsequent lyophilization. Ethanol or DMSO was used as the vehicle for all cellular studies.
The antiproliferative potencies of the taccalonolides were evaluated in HeLa cells using the SRB assay.

[1] = parent taccalonolide, read-out: IC50
[2] = Homo sapiens, HeLa, parent taccalonolide, read-out: IC50

Molecule	IC50 [1]	IC50 [2]	other results
5α-hydroxy-taccalonolide A [Taccalonolide Z]	0.12 µM		
CC(=O)O[C@H]1C[C@H]2[C@H]([C@@H]3[C@@H](O)[C@@H]4[C@H]([C@H](C)[C@@H]5O[C@@]56OC(=O)[C@@](C)(O)[C@]46C)[C@]31C)[C@@H](O)C(=O)[C@H]1C[C@@H]3O[C@@H]3[C@H](OC(C)=O)[C@@]12C [N-epo]			IC50 (C22-C23 epoxide of the taccalonolide in the same line, read-out: Corresponding Epoxide IC50): 0.011 µM
CC(=O)O[C@@H]1[C@H]2[C@H]3[C@H]([C@H](OC(C)=O)[C@H](OC(C)=O)[C@]2(C)[C@@H]2[C@@H]1[C@]1(C)C(=C[C@H]2C)OC(=O)[C@@]1(C)O)[C@]1(C)[C@H](C[C@@H]2O[C@@H]2[C@@H]1OC(C)=O)C(=O)[C@@H]3O [Taccalonolide A, reference compound]		5.38 µM	
CC(=O)O[C@@H]1[C@H]2[C@H]3[C@H]([C@H](OC(C)=O)[C@H](OC(C)=O)[C@]2(C)[C@@H]2[C@@H]1[C@]1(C)C(=C[C@H]2C)OC(=O)[C@@]1(C)O)[C@@]1(C)[C@@H](OC(C)=O)[C@H]2O[C@H]2C[C@]1(O)C(=O)[C@@H]3OC(C)=O [Taccalonolide AA]		0.0323 µM	
CC(=O)O[C@H]1[C@H]2[C@H]([C@@H]3[C@@H](O)[C@@H]4[C@H]([C@H](C)C=C5OC(=O)[C@@](C)(O)[C@@]54C)[C@@]3(C)[C@H]1OC(C)=O)[C@@H](O)C(=O)[C@@]1(O)C[C@@H]3O[C@@H]3[C@H](OC(C)=O)[C@]21C [Taccalonolide AB]		2.77 µM	
CC(=O)O[C@@H]1[C@H]2[C@H]3C([C@H](OC(C)=O)[C@H](OC(C)=O)[C@]2(C)[C@@H]2[C@@H]1[C@]1(C)C(=C[C@@]2(C)OO)OC(=O)[C@@]1(C)O)[C@]1(C)[C@H](C[C@@H]2O[C@@H]2[C@@H]1OC(C)=O)C(=O)[C@@H]3O (stereo partly drawn) [Taccalonolide AC]			activity at concentrations as high as 50,000 nM (up to 50,000 nM): no activity
CC(=O)O[C@@H]1[C@H]2[C@@H]3C(=O)C(O)=C4C[C@@H]5O[C@@H]5[C@H](OC(C)=O)[C@]4(C)[C@H]3[C@H](OC(C)=O)[C@H](OC(C)=O)[C@]2(C)[C@@H]2[C@@H]1[C@]1(C)C(=C[C@H]2C)OC(=O)[C@@]1(C)O [Taccalonolide AD]	3.48 µM		
CC(=O)O[C@@H]1[C@H]2[C@H]3[C@H]([C@H](OC(C)=O)[C@H](OC(C)=O)[C@]2(C)[C@@H]2[C@@H]1[C@]1(C)C(=C[C@H]2C)OC(=O)[C@@]1(C)O)[C@]1(C)[C@H](C[C@@H]2O[C@@H]2[C@@H]1OC(C)=O)C(=O)C3(O)O [Taccalonolide AE]	5.01 µM		
CC(=O)O[C@H]1C[C@H]2[C@H]([C@@H]3[C@H]4OC(=O)[C@@](C)(O)[C@@]5(C)C(=O)C[C@@H](C)[C@@H]([C@@H]45)[C@]31C)[C@@H](O)C(=O)[C@H]1C[C@@H]3O[C@@H]3[C@H](OC(C)=O)[C@@]12C [Taccalonolide AK]	> 30 µM		activity at concentrations as high as 30,000 nM: no activity
CC(=O)O[C@H]1C[C@H]2[C@H]([C@@H]3[C@@H](O)[C@@H]4[C@H]([C@H](C)C=C5OC(=O)[C@@](C)(O)[C@@]54C)[C@]31C)[C@@H](O)C(=O)[C@@]1(O)C[C@@H]3O[C@@H]3[C@H](OC(=O)CC(C)C)[C@]21C [Taccalonolide AM]	1.2 µM		
CC(=O)O[C@H]1C[C@H]2[C@H]([C@@H]3[C@@H](O)[C@@H]4[C@H]([C@H](C)C=C5OC(=O)[C@@](C)(O)[C@@]54C)[C@]31C)[C@@H](O)C(=O)[C@H]1C[C@@H]3O[C@@H]3[C@H](O)[C@@]12C [Taccalonolide AN]	1 µM		
CC(=O)O[C@H]1[C@H]2[C@H]([C@@H]3[C@H]4OC(=O)[C@@](C)(O)[C@@]5(C)C(=O)C[C@@H](C)[C@@H]([C@@H]45)[C@@]3(C)[C@H]1OC(C)=O)[C@@H](O)C(=O)[C@H]1C[C@@H]3O[C@@H]3[C@H](OC(C)=O)[C@]21C [Taccalonolide AO]	> 30 µM		activity at concentrations as high as 30,000 nM: no activity
CC(=O)O[C@H]1[C@H]2[C@H]([C@@H]3[C@@H](O)[C@@H]4[C@H]([C@H](C)C=C5OC(=O)[C@@](C)(O)[C@@]54C)[C@@]3(C)[C@H]1OC(C)=O)[C@@H](O)C(=O)[C@H]1C[C@@H]3O[C@@H]3[C@H](OC(C)=O)[C@]21C [Taccalonolide B, reference compound]		3.12 µM	
